Activity calls are given as the source filed them. No cut-off for these calls is given here.
Legend:
[1] = Toxicity to iv dosed mouse administered as single bolus dose for 3 weeks; format: organism-based; conditions: in vivo
HCT-116 [2] = test: Antiproliferative activity against human HCT116 cells after 3 days; format: functional, cell-based; conditions: HCT-116, 72 h
HCT-116 [3] = test: Antitumor activity against BCRP-negative human HCT116 cells xenografted in mouse at 40 mg/kg, iv administered as single bolus dose for 3 weeks; format: functional, organism-based; set-up: dose 40 mg/kg
NCI-H460 [4] = test: Antitumor activity against BCRP-positive human NCI-H460 cells xenografted in mouse at 40 mg/kg, iv administered as single bolus dose for 3 weeks; format: functional, organism-based; set-up: dose 40 mg/kg
QG-56 = test: Antiproliferative activity against human QG56 cells after 3 days; format: functional, cell-based; conditions: QG-56, 72 h
HCT-116 [5] = test: Antitumor activity against BCRP-negative human HCT116 cells xenografted in mouse at 100 mg/kg, iv administered as single bolus dose for 3 weeks; format: functional, organism-based; set-up: dose 100 mg/kg
DNA topoisomerase 1 = molecular target: T1, DNA topoisomerase 1 (Homo sapiens, UniProt P11387); test: Inhibition of human topoisomerase 1
T1 sequence (P11387 whole entry): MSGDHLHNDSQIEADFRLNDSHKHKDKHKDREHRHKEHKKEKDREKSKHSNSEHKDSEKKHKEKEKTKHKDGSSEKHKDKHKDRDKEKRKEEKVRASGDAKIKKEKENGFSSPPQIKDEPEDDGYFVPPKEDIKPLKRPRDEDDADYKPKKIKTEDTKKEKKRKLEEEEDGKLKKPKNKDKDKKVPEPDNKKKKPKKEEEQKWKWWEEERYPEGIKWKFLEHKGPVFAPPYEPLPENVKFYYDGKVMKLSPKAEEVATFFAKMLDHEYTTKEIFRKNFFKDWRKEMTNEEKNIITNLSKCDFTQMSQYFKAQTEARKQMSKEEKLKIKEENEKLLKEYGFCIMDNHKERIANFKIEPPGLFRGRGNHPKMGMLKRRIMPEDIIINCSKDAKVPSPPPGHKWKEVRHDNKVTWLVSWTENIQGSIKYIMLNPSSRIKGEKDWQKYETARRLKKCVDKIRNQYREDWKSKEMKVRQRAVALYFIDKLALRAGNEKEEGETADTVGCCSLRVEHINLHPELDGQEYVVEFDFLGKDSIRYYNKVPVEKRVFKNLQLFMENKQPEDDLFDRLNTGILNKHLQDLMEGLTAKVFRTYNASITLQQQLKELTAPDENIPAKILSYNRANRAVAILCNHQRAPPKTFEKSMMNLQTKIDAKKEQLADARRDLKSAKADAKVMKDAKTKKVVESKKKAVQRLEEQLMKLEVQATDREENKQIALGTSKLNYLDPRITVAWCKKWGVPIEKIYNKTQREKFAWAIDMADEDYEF

NCI-H460 [6] = test: Antitumor activity against BCRP-positive human NCI-H460 cells xenografted in mouse at 100 mg/kg, iv administered as single bolus dose for 3 weeks; format: functional, organism-based; set-up: dose 100 mg/kg
NCI-H460 [7] = test: Antiproliferative activity against human NCI-H460 cells after 3 days; format: functional, cell-based; conditions: NCI-H460, 72 h
PC-6 [8] = test: Ratio of IC50 for human PC6 expressing BCRP cells to IC50 for human PC6 cells carrying pRC; format: functional
PC-6 [9] = test: Antiproliferative activity against human PC6 expressing BCRP cells after 6 days; format: functional, cell-based; conditions: PC-6, 144 h
PC-6 [10] = test: Antiproliferative activity against human PC6 cells carrying pRC after 6 days; format: functional, cell-based; conditions: PC-6, 144 h

SMILES	IC50 (HCT-116 [2]) [nM]	IC50 (QG-56) [nM]	IC50 (NCI-H460 [7]) [nM]	other results
CCc1c2c(nc3ccc(OC(=O)N4CCC(N5CCCCC5)CC4)cc13)-c1cc3c(c(=O)n1C2)COC(=O)[C@]3(O)CC [IRINOTECAN]	–	–	–	MTD at 504 h [1]: 100 mg/kg
CCCCCN1C=Nc2cccc3nc4c(c1c23)Cn1c-4cc2c(c1=O)COC(=O)[C@]2(O)CC	0.36	2.3	2.3	MTD at 504 h [1]: 40 mg/kg; Activity (HCT-116 [3]): Active; Activity (NCI-H460 [4]): Active; Activity (HCT-116 [5]): Active; IC50 (DNA topoisomerase 1): 2300 nM; Activity (NCI-H460 [6]): Active; Ratio IC50 (PC-6 [8]): 2; IC50 (PC-6 [9]): 0.35 nM; IC50 (PC-6 [10]): 0.18 nM
CC[C@@]1(O)C(=O)OCc2c1cc1n(c2=O)Cc2c-1nc1cccc3c1c2N(CCC(C)C)C(=O)N3	0.05	0.58	0.72	–
CCCCN1C(=O)Nc2cccc3nc4c(c1c23)Cn1c-4cc2c(c1=O)COC(=O)[C@]2(O)CC	0.4	1.2	0.99	–
CC[C@@]1(O)C(=O)OCc2c1cc1n(c2=O)Cc2c-1nc1cccc3c1c2N(CCc1ccccc1)C=N3	0.36	2.1	0.91	–
CC[C@@]1(O)C(=O)OCc2c1cc1n(c2=O)Cc2c-1nc1cccc3c1c2N(CCC(C)C)C=N3	< 0.04	0.25	0.11	–
CC[C@@]1(O)C(=O)OCc2c1cc1n(c2=O)Cc2c-1nc1cccc3c1c2N(CCN1CCOCC1)C=N3	2.2	9.4	7.2	–
CC[C@@]1(O)C(=O)OCc2c1cc1n(c2=O)Cc2c-1nc1cccc3c1c2N(CCc1ccccc1)C(=O)N3	0.25	1.2	0.38	–
CC[C@@]1(O)C(=O)OCc2c1cc1n(c2=O)Cc2c-1nc1cccc3c1c2N(CCN1CCOCC1)C(=O)N3	3.6	18	26	–
CCc1c2c(nc3ccc(O)cc13)-c1cc3c(c(=O)n1C2)COC(=O)[C@]3(O)CC [7-ETHYL-10-HYDROXYCAMPTOTHECIN]	0.55	2.8	3.3	IC50 (DNA topoisomerase 1): 5500 nM; Ratio IC50 (PC-6 [8]): 12; IC50 (PC-6 [9]): 5.1 nM; IC50 (PC-6 [10]): 0.43 nM
CC[C@@]1(O)C(=O)OCc2c1cc1n(c2=O)Cc2c-1nc1cccc3c1c2N(CCC(C)C)C(CO)=N3	0.44	1.8	0.52	–
CCCCCN1C(=O)Nc2cccc3nc4c(c1c23)Cn1c-4cc2c(c1=O)COC(=O)[C@]2(O)CC	0.85	8.5	8.2	–
CC[C@@]1(O)C(=O)OCc2c1cc1n(c2=O)Cc2c-1nc1cccc3c1c2N(CCC(C)C)C(=S)N3	0.02	0.16	0.08	–
CCCCN1C=Nc2cccc3nc4c(c1c23)Cn1c-4cc2c(c1=O)COC(=O)[C@]2(O)CC	0.52	2.3	1.6	–
CCCCCN1C(C)=Nc2cccc3nc4c(c1c23)Cn1c-4cc2c(c1=O)COC(=O)[C@]2(O)CC	0.12	1.8	0.66	–

— ChEMBL document CHEMBL1153341, “Synthesis of new camptothecin analogs with improved antitumor activities” (Bioorg Med Chem Lett, 2009)
